According to patent US20120165384A1, “INHIBITION OF HISTONE ACETYLTRANSFERASES BY CTK7A AND METHODS THEREOF” (JAWAHARLAL NEHRU CENTRE FOR ADVANCED SCIENTIFIC RESEARCH, priority 2009, published 2012):

Legend:
CBP = molecular target: T1, CBP (Homo sapiens, UniProt Q92793); assay: HAT assay with recombinant CBP; type: biochemical
T1 construct: Recombinant baculovirus expressing full-length FLAG-tagged CARM1,CBP and PCAF; FLAG; made in house; host or cells: baculovirus-infected Sf21 cells
Method: Recombinant baculovirus expressing full-length FLAG-tagged CARM1,CBP and PCAF were purified by immunoaffinity chromatography using M2-agarose beads followed by elution with FLAG peptide. Baculovirus-expressed full-length hexahistidine-tagged p300, and G9a were purified using Ni-NTA affinity chromatography as described previously^30.
HAT gel fluorography/autoradiography assays were performed as previously reported^30. Kinetic analysis of p300 HAT inhibition was performed as reported earlier^31 in the presence of (0, 30 and 50 μM) CTK7A. The obtained values were plotted as a lineweaver burk plot using Graphpad Prism software. For p300 Autoacetylation assay, reactions of p300 full length (80 ng) were carried out in HAT assay buffer at 30° C. for 10 minutes with or without the protein (NPM1) followed by addition of 1 μl of 4.7 Ci/mmol [^3H] acetyl CoA (NEN-PerkinElmer) and were further incubated for another 10 min in a 30 μl reaction. GAPDH was used as positive control. The radio-labeled acetylated p300 were processed by fluorography followed by autoradiography.

PCAF = molecular target: T2, PCAF (Homo sapiens, UniProt Q92831); assay: PCAF autoacetylation assay in vitro; type: biochemical; conditions: concentration dependent
T2 construct: Recombinant baculovirus expressing full-length FLAG-tagged CARM1,CBP and PCAF; FLAG; made in house; host or cells: baculovirus-infected Sf21 cells
T2 sequence (Q92831 whole entry, species assumed): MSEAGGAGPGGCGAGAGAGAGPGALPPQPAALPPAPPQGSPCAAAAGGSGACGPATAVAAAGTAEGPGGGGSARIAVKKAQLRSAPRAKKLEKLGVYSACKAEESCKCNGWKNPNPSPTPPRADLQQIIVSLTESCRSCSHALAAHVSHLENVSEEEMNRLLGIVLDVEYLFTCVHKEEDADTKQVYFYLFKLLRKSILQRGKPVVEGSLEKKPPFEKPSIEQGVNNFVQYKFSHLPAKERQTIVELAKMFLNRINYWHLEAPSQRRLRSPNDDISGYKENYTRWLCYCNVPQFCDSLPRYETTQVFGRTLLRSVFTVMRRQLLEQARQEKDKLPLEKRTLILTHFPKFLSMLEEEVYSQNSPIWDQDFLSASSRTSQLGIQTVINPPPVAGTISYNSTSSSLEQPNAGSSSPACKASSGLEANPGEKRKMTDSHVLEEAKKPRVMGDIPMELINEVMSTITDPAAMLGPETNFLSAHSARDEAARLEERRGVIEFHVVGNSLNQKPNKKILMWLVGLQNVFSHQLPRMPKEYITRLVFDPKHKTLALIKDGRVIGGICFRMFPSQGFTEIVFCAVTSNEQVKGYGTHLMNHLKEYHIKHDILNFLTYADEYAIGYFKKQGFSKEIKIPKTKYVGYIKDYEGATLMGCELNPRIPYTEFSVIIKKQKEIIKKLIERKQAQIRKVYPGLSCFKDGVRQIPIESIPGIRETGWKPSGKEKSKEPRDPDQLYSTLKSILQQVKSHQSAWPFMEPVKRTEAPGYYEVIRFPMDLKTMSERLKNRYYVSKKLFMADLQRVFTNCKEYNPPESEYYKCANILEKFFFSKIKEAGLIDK

KB cells [1] = assay: In vitro wound-healing assay; type: cell-based; conditions: 24 h, in the presence of serum
Method: Cells in medium containing 10% FBS were seeded in 30 mm dishes. After the cells grew to confluence, wounds of constant diameter were made by sterile plastic pipette tip (200-μl) by scratching the monolayers. Cells were washed with the serum free medium twice and refreshed with medium with or without 10% FBS. Cells were treated with or without the HAT inhibitor for 24 h along with 10% serum. The wound photographs were taken under phase-contrast microscope. Serum positive and negative cells act as positive and negative control for the experiments respectively.

[2] = test system: cyclin E and cyclin D1 expression in KB cells; assay: Cyclin expression in KB cells; type: cell-based
Method: KB cells were maintained in Dullbecco's modified Eagle medium (DMEM) with 10% fetal bovine serum (FBS) at 37° C. with a 5% CO2 atmosphere in a humidified incubator. For IFNγ and GSNO treatment, KB cells were incubated in the presence of IFNγ 10 ng ml^−1 for an additional 16 h and 24 h respectively. Immunofluorescent staining of cells for confocal microscopy was carried out as described previously^30. CTK7A treatment was done for 24 h followed by acid extraction of histone and immunoblotting as per standard protocol^31. For whole cell extract preparation RIPA buffer (Tris-HCl 50 mM, pH 7.4 NP-40 1%, Na-deoxycholate 0.25%, NaCl 150 mM, EDTA 1 mM, Phenylmethylsulfonyl fluoride (PMSF), 1 mM Na3VO4, 1 mM NaF and protease inhibitor cocktail) was used.

[3] = Toxicity in mice after intraperitoneal administration; type: in vivo
Method: The in vitro and cell line based studies prompted us to study the role of CTK7A in xenograft mice. […] In order to test the effect of CTK7A on tumor growth, KB cells (2×10^6 cells) were inoculated in nude mice in the right and left flanks, respectively and treated them intraperitoneally with 100 mg/kg body weight/twice a day (for detail see Materials and Methods). […] KB cell tumors were 50% smaller in mice treated with CTK7A than in control untreated mice. The differences in the tumor size between xenografts (Control vs treated) was statistically significant (p<0.05). The levels of H3 acetylation and that of other proteins (e.g. NPM1, GAPDH, p300) were determined using IHC. […] It was observed that CTK7A decreased the levels of H3K9, K14 acetylation (as probed by H3AcK9AcK14) and ac-p300 (FIG. 6b and FIG. 6c). Further to see the site specific effect of CTK7A mediated HAT inhibition on histone acetylation, IHC was done with site specific antibodies. […] Moreover, the levels of COX2, which is induced in many cell types by mitogens, growth factors, cytokine and tumor promoters and has been implicated in many cancers, including oral cancer was also found to be suppressed in CTK7A treated tumors (FIG. 6b).

KB cells [4] = assay: FACS cell cycle analysis; type: cell-based; conditions: 24 h, concentration dependent
Method: KB cells were grown in the presence or absence of CTK7A for 24 h with the indicated concentration. Cells were grown in presence of CTK7A for 2 h in absence of serum followed by addition of 10% Serum. Briefly cells were harvested by mild trypsinization (0.25%) followed by centrifugation at 2000 rpm for 10 minutes at 4° C. Cells were washed with cold PBS by centrifugation at 2000 rpm for 10 minutes at 4° C. Cells were fixed in cold 70% Ethanol which was added drop wise along with mild vortexing.
Samples were left for 12 hrs, after which Ethanol was removed followed by two washes in cold PBS. RNase (100 μg/ml) treatment was subsequently given at 37° C./30 minutes to ensure only DNA staining. 50 μg/ml Propidium Iodide was added for staining. Cells were sorted and analyzed by flow cytometry for the cell cycle distribution using inbuilt software of BD FACScalibur instrument. Analysis was done in FL2 channel.

HDAC1 = HDAC1 (Homo sapiens, UniProt Q13547); assay: Histone deacetylase assay, HDAC1; type: biochemical; conditions: even at 100 μM
Sequence of HDAC1 (Q13547 whole entry, species assumed): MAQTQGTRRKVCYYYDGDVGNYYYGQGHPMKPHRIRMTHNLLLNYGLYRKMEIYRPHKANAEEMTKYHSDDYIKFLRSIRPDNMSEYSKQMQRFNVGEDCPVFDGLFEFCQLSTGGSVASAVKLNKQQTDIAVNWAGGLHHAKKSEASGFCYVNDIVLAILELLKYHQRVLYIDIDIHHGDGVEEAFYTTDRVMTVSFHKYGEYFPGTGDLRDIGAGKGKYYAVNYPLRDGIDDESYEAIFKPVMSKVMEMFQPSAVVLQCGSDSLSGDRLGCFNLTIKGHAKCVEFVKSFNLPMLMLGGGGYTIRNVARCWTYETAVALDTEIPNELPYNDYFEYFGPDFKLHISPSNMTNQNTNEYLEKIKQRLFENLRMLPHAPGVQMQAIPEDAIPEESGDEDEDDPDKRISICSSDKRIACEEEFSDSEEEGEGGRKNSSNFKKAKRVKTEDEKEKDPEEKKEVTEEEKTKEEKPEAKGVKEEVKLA
Method: The deacetylation assay was performed as per standard protocol^31. For SirT2 deacetylase assay, 50 ng of bacterially expressed, recombinant enzyme was added in the presence or absence of cofactor NAD^+. HMTase was performed as reported earlier^31.

T1 sequence (Q92793 whole entry): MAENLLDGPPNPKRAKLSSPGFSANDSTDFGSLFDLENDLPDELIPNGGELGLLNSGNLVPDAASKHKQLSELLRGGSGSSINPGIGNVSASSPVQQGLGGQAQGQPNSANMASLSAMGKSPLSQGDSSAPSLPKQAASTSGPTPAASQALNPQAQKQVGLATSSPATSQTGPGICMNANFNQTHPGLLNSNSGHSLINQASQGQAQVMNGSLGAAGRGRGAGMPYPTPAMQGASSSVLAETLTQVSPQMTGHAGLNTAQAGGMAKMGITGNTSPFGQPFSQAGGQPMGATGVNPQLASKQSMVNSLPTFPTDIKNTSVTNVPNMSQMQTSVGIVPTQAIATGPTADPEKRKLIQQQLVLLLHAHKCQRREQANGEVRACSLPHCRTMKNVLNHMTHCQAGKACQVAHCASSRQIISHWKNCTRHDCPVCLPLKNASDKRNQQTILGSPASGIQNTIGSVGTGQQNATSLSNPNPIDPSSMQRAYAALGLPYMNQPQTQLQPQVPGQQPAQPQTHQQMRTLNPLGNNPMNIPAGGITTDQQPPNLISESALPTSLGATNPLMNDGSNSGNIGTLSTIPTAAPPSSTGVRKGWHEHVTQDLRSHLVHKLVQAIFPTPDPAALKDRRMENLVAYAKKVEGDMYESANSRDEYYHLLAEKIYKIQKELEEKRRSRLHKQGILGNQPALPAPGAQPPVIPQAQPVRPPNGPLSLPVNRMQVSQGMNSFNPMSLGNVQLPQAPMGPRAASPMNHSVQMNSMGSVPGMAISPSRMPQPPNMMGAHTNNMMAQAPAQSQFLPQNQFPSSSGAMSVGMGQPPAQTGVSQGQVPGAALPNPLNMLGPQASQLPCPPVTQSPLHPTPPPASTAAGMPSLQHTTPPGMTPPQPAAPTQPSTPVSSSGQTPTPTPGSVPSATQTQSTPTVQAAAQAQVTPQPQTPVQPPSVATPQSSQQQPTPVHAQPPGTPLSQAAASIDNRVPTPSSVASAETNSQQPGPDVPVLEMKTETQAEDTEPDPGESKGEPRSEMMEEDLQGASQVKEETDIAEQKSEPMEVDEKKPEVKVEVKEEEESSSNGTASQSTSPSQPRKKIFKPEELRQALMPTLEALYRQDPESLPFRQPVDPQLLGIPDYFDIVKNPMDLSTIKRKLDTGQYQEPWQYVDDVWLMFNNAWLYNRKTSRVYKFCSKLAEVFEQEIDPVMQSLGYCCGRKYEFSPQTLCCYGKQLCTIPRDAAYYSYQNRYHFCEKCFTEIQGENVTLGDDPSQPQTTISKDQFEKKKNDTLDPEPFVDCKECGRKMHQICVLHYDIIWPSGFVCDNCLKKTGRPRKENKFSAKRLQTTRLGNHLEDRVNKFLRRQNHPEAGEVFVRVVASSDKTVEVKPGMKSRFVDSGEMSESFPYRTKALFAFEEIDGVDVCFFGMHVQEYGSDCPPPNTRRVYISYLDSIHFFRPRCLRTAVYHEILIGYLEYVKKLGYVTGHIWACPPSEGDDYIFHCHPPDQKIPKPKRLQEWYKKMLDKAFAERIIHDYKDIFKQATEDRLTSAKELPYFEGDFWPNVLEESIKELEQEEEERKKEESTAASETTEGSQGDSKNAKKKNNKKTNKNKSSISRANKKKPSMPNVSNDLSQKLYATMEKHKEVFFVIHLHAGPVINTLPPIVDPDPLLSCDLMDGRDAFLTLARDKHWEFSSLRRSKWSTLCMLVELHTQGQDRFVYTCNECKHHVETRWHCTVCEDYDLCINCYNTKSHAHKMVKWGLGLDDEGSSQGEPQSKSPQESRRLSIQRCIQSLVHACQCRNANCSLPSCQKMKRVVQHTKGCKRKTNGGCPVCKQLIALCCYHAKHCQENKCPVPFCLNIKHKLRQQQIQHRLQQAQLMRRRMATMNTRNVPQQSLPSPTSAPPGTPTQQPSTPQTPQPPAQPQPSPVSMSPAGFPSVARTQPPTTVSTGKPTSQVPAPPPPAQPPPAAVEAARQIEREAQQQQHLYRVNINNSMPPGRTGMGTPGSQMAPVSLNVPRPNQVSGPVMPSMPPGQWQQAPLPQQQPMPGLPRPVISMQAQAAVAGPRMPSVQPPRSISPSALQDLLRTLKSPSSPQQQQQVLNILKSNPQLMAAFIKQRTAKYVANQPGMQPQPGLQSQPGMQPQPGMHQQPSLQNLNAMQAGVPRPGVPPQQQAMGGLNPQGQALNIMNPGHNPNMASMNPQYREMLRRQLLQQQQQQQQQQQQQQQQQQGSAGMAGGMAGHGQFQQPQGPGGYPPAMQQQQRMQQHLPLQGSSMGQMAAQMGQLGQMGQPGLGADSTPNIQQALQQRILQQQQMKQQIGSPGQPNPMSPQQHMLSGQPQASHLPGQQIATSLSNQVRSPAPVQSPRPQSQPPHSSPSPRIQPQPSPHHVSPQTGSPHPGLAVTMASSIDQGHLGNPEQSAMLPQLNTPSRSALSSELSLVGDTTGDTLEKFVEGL

SMILES: COc1cc([O-])cc(C=CC2=NN(c3ccc(C(=O)[O-])cc3)C(C=Cc3cc([O-])cc(OC)c3)C2)c1.[Na+].[Na+].[Na+] (stereo not drawn) [CTK7A, Sodium 4-(3,5-bis(3-methoxy-5-oxidostyryl)-4,5dihydro-1H-pyrazole-1-yl)benzoate]
- inhibition of CBP HAT activity (CBP): inhibit
- inhibition of PCAF autoacetylation (PCAF): inhibit
- wound healing activity (KB cells [1]): reduction
- cyclin D1 expression [2]: affected marginally
- cyclin E expression ([2]; dose dependent): down regulated
- body weight loss ([3]; doses up to 100 mg/kg body weight/twice a day during 1 month): no observed weight loss
- toxicity to mice ([3]; intraperitoneal (i.p) administration): not toxic
- percentage of polyploid cells (>4N) (KB cells [4]): dramatic increase
- effect on HDAC1 activity (HDAC1): unaffected
